Results taken from article PMC5038266 (Antimicrobial Agents and Chemotherapy, 2016).
Entries after “also recorded” stand apart in the source; their conditions may differ. Read-outs that look alike come from different tables or passages of the source.

Key:
[1] = Study 1: multiple-dose drug-drug interaction pharmacokinetics, delamanid with ethambutol plus Rifater; conditions: for AUC / Cmax: human, plasma, po, ethambutol 1100 mg + Rifater once daily, mean ± SD; for AUC: AUCτ of coadministered drug; for Cmax: Cmax of coadministered drug
[2] = Study 2: multiple-dose drug-drug interaction pharmacokinetics, delamanid with tenofovir or Kaletra (lopinavir/ritonavir); conditions: for Equivalence outcome for steady-state exposure of coadministered drug: coadministered with delamanid
[3] = Study 2 safety assessments (adverse events); format: in vivo, human (healthy subjects); conditions: combinations of delamanid with either tenofovir or lopinavir and ritonavir
[4] = Study 3 safety assessments (adverse events); format: in vivo, human (healthy subjects); conditions: efavirenz alone, delamanid alone, and delamanid plus efavirenz
[5] = human, in vivo
[6] = in vivo
[7] = Study 1; multiple once-daily oral doses of 200 mg delamanid alone and in combination with ethambutol and rifampin/isoniazid/pyrazinamide
MDR-TB = conditions: cited from earlier work
CYP enzymes = system: CYP enzymes; design: method as in PMID 17132069; conditions: cited from earlier work
clinical [8] = conditions: human, in vivo, po; for Tmax: Delamanid Tmax
clinical [9] = conditions: human, in vivo, po; for AUC: Delamanid AUCτ
[10] = Study 3: multiple-dose drug-drug interaction pharmacokinetics, delamanid with efavirenz; conditions: for AUC / Cmax: human, po; for AUC: Delamanid AUCτ
[11] = delamanid plus optimized background regimen for ≤2 months
[12] = ethambutol-Rifater plus delamanid versus ethambutol-Rifater alone
[13] = with DLM, day 15, with delamanid 200 mg once daily
[14] = without DLM, day 15, without delamanid
[15] = Cmax of coadministered drug, with DLM

C[C@]1(COc2ccc(N3CCC(Oc4ccc(OC(F)(F)F)cc4)CC3)cc2)CN=C(N)O1 [DM-6705]
Lower metabolite AUCτ when delamanid coadministered with ethambutol-Rifater ([1]; based on the AUC, versus delamanid alone): 30 to 50%
Higher exposure on coadministration of lopinavir/ritonavir (Kaletra) with delamanid ([2]; delamanid and metabolites, unpublished results for metabolites): approximately 25%

C[C@]1(COc2ccc(N3CCC(Oc4ccc(OC(F)(F)F)cc4)CC3)cc2)Cn2cc([N+](=O)[O-])nc2O1 [Delamanid]
Tolerability [3]: well tolerated
Tolerability [4]: well tolerated
Delamanid concentrations reached steady state by day [5]: ≤ 15 days
Lower delamanid AUCτ on coadministration with ethambutol plus Rifater [5]: 47%
Lower delamanid Cmax on coadministration with ethambutol plus Rifater [5]: 42%
Delamanid concentrations reached steady-state by day ([6]; human): ≤ 14 days
Delamanid AUCτ ([6]; human, po, 100 mg): 5,830 ± 1,660 ng·h/ml
Delamanid Cmax ([6]; human, po, 100 mg): 734 ± 196 ng/mL
Effect of tenofovir coadministration on delamanid PK/systemic exposure [6]: did not affect
Equivalence outcome for steady-state exposure of delamanid [6]: documented
Tolerability [7]: well tolerated
Improvement of 2-month sputum culture conversion (MDR-TB; MDR-TB patients, delamanid + optimized background regimen for 2 months compared to placebo + optimized background regimen): approximately 50%
Favorable treatment outcomes (MDR-TB; [11]): 55%
Mortality (MDR-TB; [11]): 12.0%
Favorable treatment outcomes (MDR-TB; delamanid plus optimized background regimen for ≥6 months, P < 0.001): 74.5%
Mortality (MDR-TB; delamanid plus optimized background regimen for ≥6 months, P = 0.001): 2.9%
Effects on CYP activities (CYP enzymes; in vitro): neither stimulatory nor inhibitory effects
Metabolism by CYP enzymes (CYP enzymes; incubation of delamanid with liver microsomes, metabolites minimally quantifiable): not metabolized by CYP enzymes
AUC (clinical [8]; 200 mg, Delamanid AUCτ): 3110 ng·h/mL
AUC (clinical [8]; 200 mg, Delamanid AUCτ, Study 1, DLM + PLC, delamanid 200 mg once daily, day 15, plasma, mean ± SD): 5950 ng·h/mL
Cmax (clinical [8]; 200 mg, Delamanid Cmax): 270 ± 38.9 ng/mL
Cmax (clinical [8]; 200 mg, Delamanid Cmax, Study 1, DLM + PLC, delamanid 200 mg once daily, day 15, plasma, mean ± SD): 476 ± 119 ng/mL
Tmax (clinical [8]; 200 mg): 4.06 h
Tmax (clinical [8]; 200 mg, Study 1, DLM + PLC, delamanid 200 mg once daily, day 15, plasma, median (min-max)): 4 h
Tmax (clinical [9]; 100 mg): 4 h
AUC (clinical [9]; 100 mg): 4510 ng·h/mL
AUC (clinical [9]; 100 mg, Study 2, DLM alone, delamanid 100 mg twice daily, day 14, plasma, mean ± SD): 4700 ng·h/mL
Cmax (clinical [9]; 100 mg, Delamanid Cmax): 518 ± 114 ng/mL
Cmax (clinical [9]; 100 mg, Delamanid Cmax, Study 2, DLM alone, delamanid 100 mg twice daily, day 14, plasma, mean ± SD): 617 ± 135 ng/mL
Effect of efavirenz coadministration on delamanid steady-state exposure/PK [10]: did not significantly affect
Delamanid Tmax ([10]; DLM alone, delamanid 100 mg twice daily, day 7 evening dose, median (min-max)): 4.00 (2.00–6.00) h
AUC ([10]; in vivo, 100 mg, DLM + EFV (efavirenz 600 mg once daily for 10 days), delamanid 100 mg twice daily, day 17 evening dose, mean ± SD): 4240 ng·h/mL
AUC ([10]; in vivo, 100 mg, DLM alone, delamanid 100 mg twice daily, day 7 evening dose, mean ± SD): 4380 ng·h/mL
Cmax ([10]; in vivo, 100 mg, Delamanid Cmax, DLM + EFV (efavirenz 600 mg once daily for 10 days), delamanid 100 mg twice daily, day 17 evening dose): 394 ng/mL
Cmax ([10]; in vivo, 100 mg, Delamanid Cmax, DLM alone, delamanid 100 mg twice daily, day 7 evening dose): 391 ng/mL
Effect of CYP2C9 genotype on delamanid PK ([1]; unpublished results): no effect
Equivalence outcome for delamanid exposure ([2]; after lopinavir/ritonavir coadministration): Equivalence was suggested

O=C1Nc2ccc(Cl)cc2[C@@](C#CC2CC2)(C(F)(F)F)O1 [Efavirenz]
Tolerability [4]: well tolerated
Effect of delamanid on efavirenz plasma concentrations/exposure [10]: not affected; also recorded: did not affect
AUCτ of coadministered drug, without DLM ([10]; efavirenz 600 mg once daily in the evening for 10 days, without delamanid, mean ± SD): 84.7 ± 37.8 (14) h·µg/ml
Cmax ([10]; plasma, 600 mg, Cmax of coadministered drug, with DLM, efavirenz 600 mg once daily in the evening for 10 days, with delamanid 100 mg twice daily, mean ± SD): 5810 ± 3030 ng/mL
Cmax ([10]; plasma, 600 mg, Cmax of coadministered drug, without DLM, efavirenz 600 mg once daily in the evening for 10 days, without delamanid, mean ± SD): 5950 ± 1670 ng/mL

CC[C@@H](CO)NCCN[C@@H](CC)CO [Ethambutol]
Higher AUCτ with delamanid coadministration [1, 12]: approximately 25%
Higher Cmax with delamanid coadministration [1, 12]: approximately 25%
AUC [1, 13]: 22400 ± 4770 ng·h/mL
AUC [1, 14]: 18200 ± 3210 ng·h/mL
Cmax [1, 13]: 4450 ± 820 ng/mL

NNC(=O)c1ccncc1 [Isoniazid]
AUC (clinical [8]; AUCτ of coadministered drug, without DLM, Study 1, ethambutol 1100 mg + Rifater once daily, day 15, without delamanid, mean ± SD): 20000 ± 8000 ng·h/mL
Isoniazid concentrations in slow acetylators versus intermediate/rapid acetylators (NAT2 genotype) [1]: ~2 fold
AUC [1, 13]: 12100 ± 6900 ng·h/mL
Cmax [1, 13]: 4620 ± 980 ng/mL

Cc1cccc(C)c1OCC(=O)N[C@@H](Cc1ccccc1)[C@@H](O)C[C@H](Cc1ccccc1)NC(=O)[C@H](C(C)C)N1CCCNC1=O [Lopinavir]
Effect of delamanid on exposure of coadministered drug [2]: not affected
Equivalence outcome for steady-state exposure of coadministered drug [2]: equivalence was documented
Cmax of coadministered drug, without DLM ([2]; tenofovir 300 mg once daily or lopinavir 400 mg/ritonavir 100 mg twice daily, day 14, without delamanid, mean ± SD): 12.9 ± 3.17 (11) μg/ml

NC(=O)c1cnccn1 [Pyrazinamide]
Cmax (clinical [8]; Cmax of coadministered drug, without DLM): 49700 ng/mL
AUC [1, 13]: 533000 ± 141000 ng·h/mL
AUC [1, 14]: 488000 ± 90300 ng·h/mL
Cmax [1, 13]: 51400 ± 9060 ng/mL

CO[C@H]1/C=C/O[C@@]2(C)Oc3c(C)c(O)c4c(O)c(c(/C=N/N5CCN(C)CC5)c(O)c4c3C2=O)NC(=O)/C(C)=C\C=C\[C@H](C)[C@H](O)[C@@H](C)[C@@H](O)[C@@H](C)[C@H](OC(C)=O)[C@@H]1C [Rifampin]
AUC (clinical [8]; AUCτ of coadministered drug, with DLM): 55900 ng·h/mL
AUC (clinical [8]; AUCτ of coadministered drug, without DLM): 48200 ng·h/mL
Cmax (clinical [8]; [15]): 13200 ng/mL

CC(C)c1nc(CN(C)C(=O)N[C@H](C(=O)N[C@@H](Cc2ccccc2)C[C@H](O)[C@H](Cc2ccccc2)NC(=O)OCc2cncs2)C(C)C)cs1 [Ritonavir]
Cmax (clinical [9]; [15]): 1270 ng/mL
Effect of delamanid on exposure of coadministered drug [2]: not affected
Equivalence outcome for steady-state exposure of coadministered drug [2]: suggested

C[C@H](Cn1cnc2c(N)ncnc21)OCP(=O)(O)O [Tenofovir]
Cmax (clinical [9]; [15]): 294 ng/mL
Effect of delamanid on exposure of coadministered drug [2]: not affected
Equivalence outcome for steady-state exposure of coadministered drug [2]: suggested
AUCτ of coadministered drug, with DLM ([2]; tenofovir 300 mg once daily or lopinavir 400 mg/ritonavir 100 mg twice daily, day 14, with delamanid 100 mg twice daily, mean ± SD): 2.850 ± 0.644 (13) h·µg/ml
